In patent US8415293B2, “Peptide mediators of cholesterol efflux” (The Regents of the University of California, priority 2008, dated 2013):
Each block holds one compound with its values, some of them ahead of it. Square brackets hold non-standard residues; d marks the D form. Ends that are not written are not given here.

What was measured:
[1] = Scaled = (Raw + 2.061)/4.484; Black and Mould 1991; cited from earlier work
ABCA1 [2] = molecular target: T1, ABCA1 (Mus musculus, UniProt P41233); experiment: Cholesterol efflux activity of peptides after exposure to acrolein (MPO-derived oxidation product), J774 macrophages + cAMP; format: cell-based; details: acrolein:peptide mole ratio 25:1, 18 h, 37° C.; efflux at 2 μg/ml
T1 construct: cell lines in which cholesterol efflux can be enhanced using a cAMP analog that up-regulates ABCA1 protein expression (e.g., J774 macrophages); endogenous in cells; host or cells: J774 macrophages
Protocol: Peptides corresponding to SEQ ID NO:2 and SEQ ID NO:12 were exposed to acrolein (acrolein:peptide mole ratio=25:1) for 18 h at 37° C. Control peptides were similarly incubated in the absence of acrolein. Control and acrolein-treated peptides were then dialyzed and used for cholesterol efflux experiments. […] J774 macrophages treated with cAMP, which up-regulates ABCA1, were used in both panels. Cholesterol efflux assays were conducted using peptides at 2 μg/ml serum free-medium.

ABCA1 [3] = molecular target: T1, ABCA1; experiment: Cholesterol efflux from [3H]cholesterol-labeled J774 macrophages ± cAMP (upregulates ABCA1); format: cell-based; details: for % cholesterol efflux (8 hours): J774 macrophages; for cholesterol efflux from cells induced for the ABCA1 response (in words): lipid-free peptide 30 μg/ml, 8 h, +cAMP compared to no cAMP
Excerpt: Suitable cholesterol efflux assays are described in, […] and Oda, M. N., Biochemistry, 41:2089-2096 (2002); Jia et al., Biochem. Biophys. Res. Common., 297:206-213 (2002). In some embodiments, a polypeptide known to mediate cholesterol efflux (e.g., helix 9/10 of Apo A-I) is used to screen for additional mediators of cholesterol efflux in a cell based assay. For example, cell lines in which cholesterol efflux can be enhanced using a cAMP analog that up-regulates ABCA1 protein expression (e.g., J774 macrophages) can conveniently be used to assess the ability of a polypeptide of the present invention to mediate cholesterol efflux. The cells are incubated with labeled cholesterol (e.g., [^3H]cholesterol) under conditions appropriate for cholesterol uptake by the cells. Thus, cAMP or cAMP analogs (e.g., CPT-cAMP) are incubated with the cells for a suitable time before the initiation of cellular cholesterol efflux, i.e., prior to contacting the cells with a test polypeptide. Measurement of labeled cholesterol appearing in the medium is used to determine the cholesterol efflux mediating activity of the test polypeptide. […] J774 cells plated on 24-well culture plates were labeled (48 h) with 1 μCi/ml of [^3H]cholesterol in 1% FBS. A cAMP analog was added (0.3 mM) to some wells (12-18 h) to up-regulate ABCA1 expression. Following cAMP treatment, cells were rinsed, and then exposed to peptide in serum-free medium. Panel A provides data showing the dependence of cholesterol efflux on concentration (lipid-free SEQ ID NO:2 peptide (squares) and lipid-free apolipoprotein(apo)A-I (circles)); cAMP-treated cells were used. The percentage of cellular [^3H]cholesterol that appeared in the medium at 8 h is shown, subtracting background efflux to serum-free medium alone. Values are means±SD; apoA-I, n=8; SEQ ID NO:2 peptide, n=3. Km values reflecting efficiency for cholesterol efflux stimulation were calculated (Prism 4 software) from concentration-dependence curves using the Michaelis-Menton equation and 4 h efflux data.

ABCA1 [4] = molecular target: T1, ABCA1; experiment: as above; format: cell-based; details: concentration dependence
[5] = tested on: HDL subpopulations in human plasma; experiment: preβ-1 HDL formation in human plasma (2D gel electrophoresis, apoA-I Western blot); format: biochemical; details: peptide 30 μg/ml (peptide:apoA-I mole ratio ~1:5), 5 minutes, 37° C.
Protocol: Peptide of the invention may also be screened for the ability to induce preβ-1 HDL formation in human plasma. In one example of such an analysis, a peptide to be tested is added to human plasma. Plasma with and without peptide are incubated and then evaluated, e.g., by agarose gel electrophoresis in the first dimension followed by native gradient gel electrophoresis in the second dimension to evaluate the population of HDL particles present in the human plasma samples.
Peptides corresponding to SEQ ID NO:2 were added to human plasma at a final concentration of 30 μg/ml (i.e. peptide:apoA-I mole ratio ˜1:5). Plasma with and without peptide were subsequently incubated for 5 minutes at 37° C. Following incubations, samples of plasma were subjected to agarose gel electrophoresis in the first dimension followed by native gradient gel electrophoresis in the second dimension. Proteins on resulting gels were transferred to nitrocellulose and analyzed by Western-blot analysis using an apoA-I antibody. The distribution of HDL subpopulations in plasma treated with vehicle alone (open bars), SEQ ID NO:2 peptide composed of all D-amino acids (intermediate shade), and SEQ ID NO:2 peptide composed of all L-amino acids (darkly shaded) is shown. […] Reductions of α-HDL subpopulations indicate that peptides specifically interact with distinct HDL species to generate preβ-1 apoA-I particles.

T1 sequence (P41233 whole entry): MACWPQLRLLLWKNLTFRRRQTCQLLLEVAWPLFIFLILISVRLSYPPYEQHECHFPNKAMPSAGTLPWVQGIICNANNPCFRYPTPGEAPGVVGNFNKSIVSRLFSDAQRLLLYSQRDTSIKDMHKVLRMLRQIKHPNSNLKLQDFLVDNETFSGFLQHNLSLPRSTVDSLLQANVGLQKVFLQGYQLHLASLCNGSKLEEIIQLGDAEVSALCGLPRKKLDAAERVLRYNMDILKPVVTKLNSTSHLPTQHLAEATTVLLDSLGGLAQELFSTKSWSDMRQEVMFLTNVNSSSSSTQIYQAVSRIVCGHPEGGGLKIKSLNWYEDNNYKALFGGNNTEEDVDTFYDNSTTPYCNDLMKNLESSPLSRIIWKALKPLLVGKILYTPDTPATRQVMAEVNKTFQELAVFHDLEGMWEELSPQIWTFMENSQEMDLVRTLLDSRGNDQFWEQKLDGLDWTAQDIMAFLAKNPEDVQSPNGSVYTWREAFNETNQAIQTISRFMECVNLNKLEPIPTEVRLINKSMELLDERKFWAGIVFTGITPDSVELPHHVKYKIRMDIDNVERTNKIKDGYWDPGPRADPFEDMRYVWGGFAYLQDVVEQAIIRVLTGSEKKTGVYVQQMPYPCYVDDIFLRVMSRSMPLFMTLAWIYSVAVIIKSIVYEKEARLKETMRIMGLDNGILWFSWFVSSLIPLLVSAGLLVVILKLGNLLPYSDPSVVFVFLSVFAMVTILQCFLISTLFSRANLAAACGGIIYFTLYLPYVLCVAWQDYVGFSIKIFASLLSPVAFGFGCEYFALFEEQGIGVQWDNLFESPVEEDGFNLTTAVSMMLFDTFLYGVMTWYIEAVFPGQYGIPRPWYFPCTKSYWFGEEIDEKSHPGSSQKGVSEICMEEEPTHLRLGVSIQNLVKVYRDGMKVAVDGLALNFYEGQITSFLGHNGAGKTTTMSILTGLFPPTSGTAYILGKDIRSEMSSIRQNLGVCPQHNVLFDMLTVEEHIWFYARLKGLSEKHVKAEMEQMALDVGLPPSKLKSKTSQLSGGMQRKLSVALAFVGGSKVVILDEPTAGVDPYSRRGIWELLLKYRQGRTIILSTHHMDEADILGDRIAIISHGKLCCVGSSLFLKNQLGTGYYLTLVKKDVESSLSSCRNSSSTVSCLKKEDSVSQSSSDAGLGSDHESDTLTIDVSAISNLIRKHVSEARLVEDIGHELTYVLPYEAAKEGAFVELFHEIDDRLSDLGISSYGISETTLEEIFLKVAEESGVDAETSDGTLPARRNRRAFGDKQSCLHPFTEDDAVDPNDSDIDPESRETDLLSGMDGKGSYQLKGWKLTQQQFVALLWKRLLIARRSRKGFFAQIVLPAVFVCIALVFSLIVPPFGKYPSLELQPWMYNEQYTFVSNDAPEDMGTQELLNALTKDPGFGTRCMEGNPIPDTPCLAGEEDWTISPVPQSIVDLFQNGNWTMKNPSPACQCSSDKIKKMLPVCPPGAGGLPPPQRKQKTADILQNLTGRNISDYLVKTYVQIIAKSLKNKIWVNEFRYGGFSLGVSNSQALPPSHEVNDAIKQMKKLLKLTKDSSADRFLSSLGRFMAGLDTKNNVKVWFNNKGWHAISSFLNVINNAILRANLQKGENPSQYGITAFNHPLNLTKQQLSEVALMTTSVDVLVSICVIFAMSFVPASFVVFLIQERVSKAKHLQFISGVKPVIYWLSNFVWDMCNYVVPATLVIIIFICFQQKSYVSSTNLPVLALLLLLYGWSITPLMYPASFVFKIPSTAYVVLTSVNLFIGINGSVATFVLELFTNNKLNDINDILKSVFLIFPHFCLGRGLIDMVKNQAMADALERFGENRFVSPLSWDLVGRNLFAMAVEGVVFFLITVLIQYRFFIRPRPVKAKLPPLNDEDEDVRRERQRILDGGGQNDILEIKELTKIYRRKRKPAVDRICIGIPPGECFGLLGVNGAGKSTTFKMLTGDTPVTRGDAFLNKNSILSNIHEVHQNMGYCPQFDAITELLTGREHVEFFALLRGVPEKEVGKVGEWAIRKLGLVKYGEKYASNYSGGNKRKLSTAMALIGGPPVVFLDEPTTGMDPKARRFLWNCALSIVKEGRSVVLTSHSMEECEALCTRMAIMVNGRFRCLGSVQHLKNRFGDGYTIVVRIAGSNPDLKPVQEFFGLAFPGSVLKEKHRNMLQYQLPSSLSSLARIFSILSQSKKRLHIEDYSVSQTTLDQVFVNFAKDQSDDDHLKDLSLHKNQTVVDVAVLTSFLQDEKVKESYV

Compound: C[C@H](N)C(=O)O [Alanine]
- Hydrophobicity (scaled computational log(P)) [1]: 0.616

Compound: N=C(N)NCCC[C@H](N)C(=O)O [Arginine]
- Hydrophobicity (scaled computational log(P)) [1]: 0.000

Compound: NC(=O)C[C@H](N)C(=O)O [Asparagine]
- Hydrophobicity (scaled computational log(P)) [1]: 0.236

Compound: N[C@@H](CCC(=O)O)C(=O)O [Glutamate]
- Hydrophobicity (scaled computational log(P)) [1]: 0.043

Compound: NCC(=O)O [Glycine]
- Hydrophobicity (scaled computational log(P)) [1]: 0.501

Compound: N[C@@H](Cc1c[nH]cn1)C(=O)O [Histidine]
- Hydrophobicity (scaled computational log(P)) [1]: 0.165

Compound: CC[C@H](C)[C@H](N)C(=O)O [Isoleucine]
- Hydrophobicity (scaled computational log(P)) [1]: 0.943

Compound: NCCCC[C@H](N)C(=O)O [Lysine]
- Hydrophobicity (scaled computational log(P)) [1]: 0.283

Compound: CSCC[C@H](N)C(=O)O [Methionine]
- Hydrophobicity (scaled computational log(P)) [1]: 0.738

Compound: N[C@@H](Cc1ccccc1)C(=O)O [Phenylalanine]
- Hydrophobicity (scaled computational log(P)) [1]: 1.00

Compound: O=C(O)[C@@H]1CCCN1 [Proline]
- Hydrophobicity (scaled computational log(P)) [1]: 0.711

Compound: C[C@@H](O)[C@H](N)C(=O)O [Threonine]
- Hydrophobicity (scaled computational log(P)) [1]: 0.450

Compound: N[C@@H](Cc1c[nH]c2ccccc12)C(=O)O [Tryptophan]
- Hydrophobicity (scaled computational log(P)) [1]: 0.878

Compound: N[C@@H](Cc1ccc(O)cc1)C(=O)O [Tyrosine]
- Hydrophobicity (scaled computational log(P)) [1]: 0.880

Compound: CC(C)[C@H](N)C(=O)O [Valine]
- Hydrophobicity (scaled computational log(P)) [1]: 0.825

- effect of acrolein on cholesterol efflux activity (ABCA1 [2]): modest effects of acrolein
- % cholesterol efflux (8 hours) (ABCA1 [3]; + cAMP (ABCA1 upregulated)): 8.25 ± 0.33%
- % cholesterol efflux (8 hours) (ABCA1 [3]; no cAMP): 2.66 ± 0.41%
- % cholesterol efflux/4 hours (ABCA1 [4]; peptide 0.1 μg/ml): 0.58%
- % cholesterol efflux/4 hours (ABCA1 [4]; peptide 0.3 μg/ml): 1.00%
- % cholesterol efflux/4 hours (ABCA1 [4]; peptide 1.0 μg/ml): 2.12%
- % cholesterol efflux/4 hours (ABCA1 [4]; peptide 3.0 μg/ml): 5.25%
- % cholesterol efflux/4 hours (ABCA1 [4]; peptide 10 μg/ml): 4.15%
- % cholesterol efflux/4 hours (ABCA1 [4]; peptide 30 μg/ml): 3.70%
Compound: ELRDRLEAWLDLLRELLERL [N1154-10]

Compound: ELREKLEAFFELFREFLERF (synthetic amphipathic alpha-helix peptide ligand for ATP-binding cassette transporter A1 (ABCA1) having cholesterol efflux activity) [SEQ ID NO:33]
- cholesterol efflux from cells induced for the ABCA1 response (in words) (ABCA1 [3]): relatively high-levels of cholesterol efflux

Compound: ELREKLEALFELFREFLERF (synthetic amphipathic alpha-helix peptide ligand for ATP-binding cassette transporter A1 (ABCA1) having cholesterol efflux activity) [SEQ ID NO:32]
- cholesterol efflux from cells induced for the ABCA1 response (in words) (ABCA1 [3]): relatively high-levels of cholesterol efflux

- concentration giving max. efflux (ABCA1 [3]; concentration dependence, cAMP treated cells): 3 µg/mL
Compound: ELREKLEAWFELFAEFFARF (synthetic amphipathic alpha-helix peptide N356-6 ligand for ATP-binding cassette transporter A1 (ABCA1) having cholesterol efflux activity)

Compound: ELREKLEAWFELFREFLERF ([dE][dL][dR][dE][dK][dL][dE][dA][dW][dF][dE][dL][dF][dR][dE][dF][dL][dE][dR][dF])
- change in HDL subpopulations in human plasma [5]: preferential increase in preβ-1 HDL

- effect of acrolein on cholesterol efflux activity (ABCA1 [2]): Acrolein greatly decreased the activity
- % cholesterol efflux (8 hours) (ABCA1 [3]; + cAMP (ABCA1 upregulated)): 5.26 ± 0.95%
- % cholesterol efflux (8 hours) (ABCA1 [3]; no cAMP): 2.29 ± 0.16%
- % cholesterol efflux/4 hours (ABCA1 [4]; peptide 0.1 μg/ml): 0.15%
- % cholesterol efflux/4 hours (ABCA1 [4]; peptide 0.3 μg/ml): 0.52%
- % cholesterol efflux/4 hours (ABCA1 [4]; peptide 1.0 μg/ml): 1.72%
- % cholesterol efflux/4 hours (ABCA1 [4]; peptide 3.0 μg/ml): 4.60%
- % cholesterol efflux/4 hours (ABCA1 [4]; peptide 10 μg/ml): 3.62%
- % cholesterol efflux/4 hours (ABCA1 [4]; peptide 30 μg/ml): 3.66%
Compound: ELREKLEAWFELFREFLERF [N965-8]

Compound: ELREKLEAWFELFREFLERFKS (synthetic amphipathic alpha-helix peptide ligand for ATP-binding cassette transporter A1 (ABCA1) having cholesterol efflux activity) [SEQ ID NO:31]
- stimulation of ABCA1 cholesterol efflux (in words) (ABCA1 [3]; lipid-free peptide, J774 macrophages ± cAMP): stimulates ABCA1 cholesterol efflux, similar to 20-mer SEQ ID NO:2 peptide

- % cholesterol efflux (8 hours) (ABCA1 [3]; + cAMP (ABCA1 upregulated)): 6.99 ± 1.4%
- % cholesterol efflux (8 hours) (ABCA1 [3]; no cAMP): 0.91 ± 0.1%
Compound: ELREKLEAWREAFEEFFARFKS [N257-11]

Compound: apoA-I: full-length apolipoprotein A-I, polypeptide comprising 243 amino acids, used lipid-free as comparator [reference compound]
- Km (ABCA1 [3]; lipid-free, cAMP-treated cells, 4 h efflux data, read-out: Km for cholesterol efflux stimulation, molar basis): 0.12 ± 0.02 µM
- Km for cholesterol efflux stimulation, mass basis (ABCA1 [3]; lipid-free, cAMP-treated cells, Michaelis-Menton fit of 4 h efflux data): 3.4 ± 0.6 µg/mL
